The values that follow come from patent US10669238B2, “Irreversible bruton's tyrosine kinase inhibitor” (HEFEI INSTITUTES OF PHYSICAL SCIENCE, CHINESE ACADEMY OF …, priority 2016, dated 2020).

The target in one assay is BTK protein kinase (Homo sapiens, UniProt Q06187). Kind of assay: In vitro enzymatic activity against BTK (ADP-Glo). It is filed as biochemical. The following applies: for IC50: compound with BTK 4 hours at room temperature, ATP 10 μM, 37° C. 1 hour, values in nM. The method, boiled down: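 BTK (1.5 ng/μL enzyme solution) was preincubated with compound (final 10 μM to 0.003 μM) for 4 h at room temperature. Reaction ran 1 h at 37 °C with 10 μM ATP and 0.2 μg/μL poly(Glu,Tyr) 4:1 (final). ADP formed was measured by ADP-Glo luminescence, and IC50 was obtained by curve plotting.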

Assay [1] has as its system B-cell lymphoma cells U2932. Kind of assay: Cell proliferation (Cell Titer-Glo), U2932. As to conditions: Homo sapiens; U2932, 72 hours; read-out: Effects on cell proliferation (GI50). It is filed as cell-based. The method, then:
(§1) The selectivity of Compound 1 in inhibiting the proliferation of cancer cells was further evaluated by testing the effect of Btk inhibitors on the growth of cancer cells. […]
(§2) In this example different concentrations (0.000508 μM, 0.00152 μM, 0.00457 μM, 0.0137 μM, 0.0411 μM, 0.123 μM, 0.370 μM, 1.11 μM, 3.33 μM, 10 μM) of Compound 1 and Compound 6 were respectively added into the above cells which were then cultured for 72 hours. The number of viable cells was determined via quantitative determination of ATP in living cells by using Cell Titer-Glo® (Promega, the USA) Chemical Luminescent Cell Viability Assay kit.
A general note: In ATP-based viability assays light output follows the ATP content of the culture.

The subject of assay [2] is human leukocyte leukemia cells HEL. Kind of assay: Cell proliferation (Cell Titer-Glo), HEL. It is filed as cell-based. The following applies: 72 hours, read-out: Effects on cell proliferation (GI50). The method, then: as §1, §2
A further assay deals with leukemic cells K562. Kind of assay: Cell proliferation (Cell Titer-Glo), K562. The following applies: Homo sapiens; K562, 72 hours; read-out: Effects on cell proliferation (GI50). It is filed as cell-based. The method, then: as §1, §2
In assay [3] the test system is acute myeloid leukemia cell lines MV4-11. Kind of assay: Cell proliferation (Cell Titer-Glo), MV4-11. It is filed as cell-based. As to conditions: Homo sapiens; MV4-11, 72 hours; read-out: Effects on cell proliferation (GI50). As for the experimental part:
as §1, §2

Assay [4] has as its system acute myeloid leukemia cell lines MOLM16. Kind of assay: Cell proliferation (Cell Titer-Glo), MOLM-16. It is filed as cell-based. The following applies: MOLM-16, 72 hours, read-out: Effects on cell proliferation (GI50). The method, then:
as §1, §2

For assay [5], the system named is MDS-RAEB cell lines SKM-1. Kind of assay: Cell proliferation (Cell Titer-Glo), SKM-1. The assay is classed as cell-based. The following applies: Homo sapiens; SKM-1, 72 hours; read-out: Effects on cell proliferation (GI50). As for the experimental part: as §1, §2
The subject of assay [6] is diffuse large B-cell lymphoma cell lines Pfeiffer. Kind of assay: Cell proliferation (Cell Titer-Glo), Pfeiffer. As to conditions: Homo sapiens, 72 hours, read-out: Effects on cell proliferation (GI50). The assay is classed as cell-based. The method, then:
as §1, §2

Assay [7] concerns bone marrow plasma cell tumor cells AMO-1. Kind of assay: Cell proliferation (Cell Titer-Glo), AMO-1. The assay is classed as cell-based. The following applies: Homo sapiens, AMO1; AMO-1, 72 hours; read-out: Effects on cell proliferation (GI50). The method, then: as §1, §2
Assay [8] has as its target T1, TEL-BLK-BaF3 cells (stably expressing TEL-BLK activated kinase) (Homo sapiens, UniProt P51451).
T1 construct: expressed in transfected cells; host or cells: mouse BaF3 cells, retroviral MSCV-Puro; the other entry of the earlier key: ETV6 (P41212, Transcription factor ETV6)
Kind of assay: Cell proliferation (Cell Titer-Glo), BaF3-tel-BLK. The assay is classed as cell-based. The following applies: BaF3-tel-BLK (mouse BaF3 cells), 72 hours; read-out: Effects on cell proliferation (GI50). As for the experimental part: as §1, §2

For assay [9], the target named is T2, TEL-EGFR/T790-BaF3 cells (stably expressing TEL-EGFR-C797S point mutation kinase) (Homo sapiens, UniProt P00533, C797S).
T2 construct: expressed in transfected cells; host or cells: mouse BaF3 cells, retroviral MSCV-Puro
Kind of assay: Cell proliferation (Cell Titer-Glo), BaF3-tel-EGFR-C797S. It is filed as cell-based. As to conditions: BaF3-tel-EGFR-C797S (mouse BaF3 cells), 72 hours; read-out: Effects on cell proliferation (GI50). The method, then:
as §1, §2

In assay [10] the target is T3, TEL-LYN-BaF3 cells (stably expressing TEL-LYN activated kinase) (Homo sapiens, UniProt P07948).
T3 construct: expressed in transfected cells; host or cells: mouse BaF3 cells, retroviral MSCV-Puro; the other entry of the earlier key: ETV6 (P41212, Transcription factor ETV6)
Kind of assay: Cell proliferation (Cell Titer-Glo), BaF3-tel-LYN. It is filed as cell-based. As to conditions: BaF3-tel-LYN (mouse BaF3 cells), 72 hours; read-out: Effects on cell proliferation (GI50). As for the experimental part:
as §1, §2

Molecules are shown by their SMILES. Some results are limits rather than exact numbers.

BTK protein kinase, sequence (Q06187 whole entry): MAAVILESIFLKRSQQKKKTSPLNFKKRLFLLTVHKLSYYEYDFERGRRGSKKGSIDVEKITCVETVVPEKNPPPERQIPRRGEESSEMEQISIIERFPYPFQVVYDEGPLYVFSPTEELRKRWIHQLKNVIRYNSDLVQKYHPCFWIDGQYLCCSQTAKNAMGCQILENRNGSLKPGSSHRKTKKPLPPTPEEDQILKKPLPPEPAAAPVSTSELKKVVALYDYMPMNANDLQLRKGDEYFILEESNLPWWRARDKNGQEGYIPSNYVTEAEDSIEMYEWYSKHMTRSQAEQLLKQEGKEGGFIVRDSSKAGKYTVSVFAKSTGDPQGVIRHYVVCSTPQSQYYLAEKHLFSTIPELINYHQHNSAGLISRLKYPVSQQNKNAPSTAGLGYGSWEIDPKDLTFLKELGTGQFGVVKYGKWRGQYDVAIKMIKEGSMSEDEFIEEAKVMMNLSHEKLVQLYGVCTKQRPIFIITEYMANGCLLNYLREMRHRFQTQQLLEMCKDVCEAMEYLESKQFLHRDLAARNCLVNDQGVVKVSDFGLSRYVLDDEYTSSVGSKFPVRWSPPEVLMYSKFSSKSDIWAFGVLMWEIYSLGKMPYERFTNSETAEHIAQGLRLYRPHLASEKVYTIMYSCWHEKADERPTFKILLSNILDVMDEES
T3 sequence (P07948 247-501 limits assumed): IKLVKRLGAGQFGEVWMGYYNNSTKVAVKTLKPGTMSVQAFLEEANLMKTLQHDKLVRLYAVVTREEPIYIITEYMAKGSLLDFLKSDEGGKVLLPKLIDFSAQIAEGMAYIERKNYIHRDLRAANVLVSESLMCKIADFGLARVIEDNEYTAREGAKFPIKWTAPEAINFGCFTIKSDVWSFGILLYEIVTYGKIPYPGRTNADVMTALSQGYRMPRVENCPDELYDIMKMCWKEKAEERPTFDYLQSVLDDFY
T1 sequence (P51451 241-494 limits assumed): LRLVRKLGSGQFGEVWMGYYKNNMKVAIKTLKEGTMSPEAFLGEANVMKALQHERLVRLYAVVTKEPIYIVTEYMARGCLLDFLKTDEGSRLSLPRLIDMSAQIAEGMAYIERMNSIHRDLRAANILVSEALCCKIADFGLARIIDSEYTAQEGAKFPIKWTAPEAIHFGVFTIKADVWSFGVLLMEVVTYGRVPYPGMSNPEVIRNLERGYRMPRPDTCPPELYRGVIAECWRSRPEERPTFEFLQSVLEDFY
T2 sequence (P00533 712-979 C797S limits assumed): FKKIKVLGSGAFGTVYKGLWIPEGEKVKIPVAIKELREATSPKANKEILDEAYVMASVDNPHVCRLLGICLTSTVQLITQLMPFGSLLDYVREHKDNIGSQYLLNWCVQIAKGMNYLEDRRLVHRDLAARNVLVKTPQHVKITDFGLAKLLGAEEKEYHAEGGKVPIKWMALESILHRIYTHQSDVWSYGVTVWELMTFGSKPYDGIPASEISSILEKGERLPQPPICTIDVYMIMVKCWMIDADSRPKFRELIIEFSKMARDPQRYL

By IC50 is commonly meant the concentration needed to halve the response being measured. Read a high IC50 as weaker potency in that assay. As for `CCC(=O)Nc1cc(Nc2cc(-c3cccc(NC(=O)c4ccc(C(C)(C)C)cc4)c3C)cn(C)c2=O)ccc1C(=O)N1CCOCC1` [Compound 6, N-(3-(5-((3-propanamide-4-(morpholin-4-carbonyl)phenyl)amino)-1-methyl-6-oxo-1,6-dihydropyridin-3-yl)-2-methylphenyl)-4-(tert-butyl)benzamide], at BTK protein kinase (ADP-Glo assay, in words), the “inhibitory effects on BTK protein” value is on record as “relatively strong inhibitory effects”. The same molecule displayed an IC50 at BTK protein kinase of 207 nM. Further, the GI50 was over 10 µM in assay [1]; over 10 µM in assay [2]; over 10 µM in the assay with leukemic cells K562; 4.8 µM in [3]; over 10 µM in [4]; over 10 µM in [5]. For the same molecule, the GI50 in assay [6] was over 10 µM; in assay [7], 8 µM; in [8], 5.4 µM; in [9] it was 1.8 µM; in assay [10] it was 6.8 µM.

The molecule `C=CC(=O)Nc1cc(Nc2cc(-c3cccc(NC(=O)c4ccc(C(C)(C)C)cc4)c3C)cn(C)c2=O)ccc1C(=O)N1CCOCC1` [Compound 1, N-(3-(5-((3-acrylamide-4-(morpholin-4-carbonyl)phenyl)amino)-1-methyl-6-oxo-1,6-dihydropyridin-3-yl)-2-methylphenyl)-4-(tert-butyl)benzamide] showed an IC50 at BTK protein kinase of 7.09 nM. In addition, the GI50 in [1] worked out at 2.4 µM; in [2], 5.3 µM; in the assay on leukemic cells K562, 4.2 µM; in assay [3], 2.1 µM; in assay [4], 3.5 µM; in [5] it was 7.1 µM. Further, the GI50 was 4.5 µM in assay [6]; 3.4 µM in [7]; 4.7 µM in assay [8]; 2.5 µM in assay [9]; 6.3 µM in [10].
